# Data taken from patent publication US8404851B2, “1,3,5-trisubstituted triazole derivative” (Janssen Pharmaceutica NV, priority 2007, dated 2013).
# pEC50: −log10 of the molar value.
# Experiments:
# [1] = molecular target: T1, hα7-wt nAChR (Homo sapiens, UniProt P36544); assay: Whole-cell voltage-clamp recording, PAM activity with choline; type: cell-based; set-up: key: Type 1 compounds enhance the effect size of the current elicited by 1 mM choline but minimally alter the kinetics of the receptor.; Type 2 compounds enhance the effect size of the current elicited by 1 mM choline while reducing the rate and/or the extent of desensitization.; Type 3 compounds enhance the effect size of the current elicited by 1 mM choline. When tested at higher concentrations up to 10 μM they completely inhibit desensitization; Type 4 compounds allow for an initial desensitization of the receptor followed by a re-opening of the receptor during agonist application; details: qualitative kinetic properties, 1 mM choline, GH4C1 cells
# T1 construct: expressed in transfected cells
# T1 sequence (P36544 23-502): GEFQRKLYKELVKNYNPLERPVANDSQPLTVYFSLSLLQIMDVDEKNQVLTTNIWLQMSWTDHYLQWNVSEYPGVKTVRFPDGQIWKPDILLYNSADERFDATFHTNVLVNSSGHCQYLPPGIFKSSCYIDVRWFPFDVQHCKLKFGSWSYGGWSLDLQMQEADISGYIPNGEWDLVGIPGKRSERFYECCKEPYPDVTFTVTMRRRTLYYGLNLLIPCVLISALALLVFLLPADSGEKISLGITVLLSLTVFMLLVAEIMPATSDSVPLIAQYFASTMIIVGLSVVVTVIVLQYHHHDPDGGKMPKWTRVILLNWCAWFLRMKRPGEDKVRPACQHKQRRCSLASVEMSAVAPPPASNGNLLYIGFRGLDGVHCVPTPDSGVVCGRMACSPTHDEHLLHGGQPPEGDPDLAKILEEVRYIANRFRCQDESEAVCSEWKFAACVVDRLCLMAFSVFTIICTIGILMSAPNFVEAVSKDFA
# Method: The compounds of the present invention are classified as type 1-4, based on qualitative kinetic properties, as determined by whole-cell voltage-clamp recordings. This classification is based on the effect of an α7 PAM compound, as described hereinbefore, on the signal elicited by an agonist application. In particular, said agonist is choline at a concentration of 1 mM. In a preferred experimental setting, said α7 PAM compound and choline are simultaneously applied to the cell, as described hereinafter. Desensitization as described hereinafter is the closure of the receptor upon activation during the application of the agonist in whole-cell voltage-clamp electrophysiology measurements seen as the reduction of the […] current after initial activation by the agonist.
# The definition of the PAM types 1-4 is described hereinafter: • Type 1 compounds enhance the effect size of the current elicited by 1 mM choline but minimally alter the kinetics of the receptor. In particular, the rate and the extent of desensitization, elicited by the agonist, is not affected. […]
# The compound of the present invention also has a potentiating effect on the response to choline when measured by whole-cell voltage clamp electrophysiology in GH4C1 cells stably over-expressing the human wild-type α7 receptor, as described hereinafter. […]
# [2] = molecular target: T1, hα7-wt nAChR; assay: Ca2+ flux imaging (FDSS), PAM activity with choline; type: cell-based; details: hα7-wt nAChR-expressing GH4C1 cells; potentiation of choline 100 μM; compound 0.01 μM to 30 μM
# Method: Ca^2+ Flux Imaging (FDSS) […]
# PAM activity was detected in real time by applying the compound to be tested to the loaded cells along with a α7 nicotinic receptor agonist during constant monitoring of the cellular calcium mobilization by fluorescence in a FDSS. […]
# A control response to choline was calculated on each plate from the difference in peak in fluorescence in wells receiving either choline or assay buffer alone. […]
# EC50 values (potency), maximal effect (% efficacy), and Hill slopes were estimated by fitting the sigmoidal equation to the data using GraphPad Prism (GraphPad Software, Inc., San Diego, Calif.). An EC50 (or pEC50) was determined as a concentration relating to half the maximal effect, when a clear sigmoidal curve with top plateau was obtained.
smiles,measurement,setting,value
"CCNC(=O)Cn1nc(Nc2ccc3c(c2)OC(F)(F)O3)nc1-c1cc(C)nc(C)c1 [Compound E1, 2-[3-(2,2-Difluoro-benzo[1,3]dioxol-5-ylamino)-5-(2,6-dimethyl-pyridin-4-yl)-[1,2,4]-triazol-1-yl]-N-ethyl-acetamide]",PAM_type,[1],2
same,pEC50,[2],6.51
same,melting point,,242.28 °C
